# Reference: US4694090A, “Chroman compounds useful as analgerics and antioxidants” (Kuraray Co., Ltd., priority 1984, dated 1987)
# Counter-ions that a name gives are not always drawn.
# Assays:
# [1] = Inhibition of linoleic acid oxidation (ferric thiocyanate absorbance at 500 mμ); details: 0.2% by weight on linoleic acid basis, pH 9, 70° C.
# Experimental: Inhibition of linoleic acid oxidation
# A test solution (10 ml) was prepared by adding each test compound, in an amount of 0.2% by weight on the linoleic acid basis, to a borate buffer (pH 9) containing 10^-2 M sodium linoleate. A 0.2 ml portion of the test solution was heated at 70° C. for a specified period of time. After heating, 4.7 ml of 75% ethanol and 0.1 ml of 30% ammonium thiocyanate were added to said test solution, and the mixture was stirred well. Then, 0.1 ml of a ferrous chloride solution [the supernatant obtained by adding an aqueous ferrous sulfate solution (0.6 g/50 ml) and 10 ml of concentrated hydrochloric acid to an aqueous barium chloride solution (0.5 g/50 ml), followed by adequate stirring and standing for a while] was added to said mixture. Exactly 3 minutes later, the resulting solution was measured for the absorbance at 500 mμ. In this way, the trivalent iron formed by the oxidative action of sodium linoleate peroxides was assayed and, based on the assay data, the test compounds were compared with respect to antioxidant activity [cf. Shokuhin Kogaku Jikkensho (Experiments in Food Engineering), vol. I, edited by the Department of Food Engineering, Faculty of Agriculture, Kyoto University, pages 634-635]. The greater the absorbance of the test solution after heating is, the greater the amount of sodium linoleate peroxides formed is.
# [2] = AOM (Antioxygen Method) test in ethyl linoleate, time till POV 100 meq/kg; details: 0.020 g per 100 g ethyl linoleate, aeration 2.33 cc/sec., 97.8° C.
# Experimental: To each 100 g of ethyl linoleate was added 0.020 g of one of the test compounds indicated in Table 7 to prepare a test solution. A 20 ml portion of each test solution was exposed to the accelerated conditions of aeration of 2.33 cc/sec. at 97.8° C. in an AOM (Antioxygen Method) test and the time period till the POV (peroxide value) reached 100 meq/kg was determined.
# [3] = Japanese Laid-Open Patent Publication No. 94382/1980; cited from earlier work
# [4] = Analgesic activity, acetic acid writhing test (mice); assay type: in vivo, Male ddY strain mice; details: 100 mg/kg, s.c., male ddY mice, groups of ten
# [5] = Local anesthetic activity, tail pinch test; assay type: in vivo, Mouse; details: s.c., 3%
# Experimental: (§1) β-(2,3-Dihydro-6-hydroxy-2,5,7,8-tetramethyl-2H-benzopyranyl)alanine hydrochloride was evaluated for analgesic activity in the writhing test [cf. Koster et al., Fed. Proc., 18, 412 (1959)], local anesthetic activity in the tail pinch test [cf. Bianchi, C., Brit. J. Pharmacol., 11, 104 (1956)] and bronchodilator activity in lung perfusion [cf. Luduena, F. P., Arch. Int. Pharmacodyn., 111, 392 (1957)].
# [6] = test system: isoprenaline-induced bronchodilation; assay: Bronchodilator activity, lung perfusion; details: Table 8: guinea pig, in vitro, 300 μg
# Experimental: as §1
# >40% reduction in Inhibited
# [7] = Acute toxicity (oral administration); details: mouse, in vivo, male mice
# From the text: Among the chroman compounds (I), the chroman compounds (I-2) show excellent analgesic activity. In addition, these compounds have low toxicity. […] So, the chroman compounds (I-2) can be used as an analgesic.
# [8] = Analgesic activity, writhing test (rat); assay type: in vivo; details: i.p., 100 mg/kg
# Experimental: as §1
structure (smiles),measurement,setting,value
Cc1c(C)c2c(c(C)c1O)CCC(C)(C(N)C(=O)O)O2 (centres unmarked),"Absorbance, solution after 1 hr. of heating",[1],0.02
same,"Absorbance, solution after 2 hrs. of heating",[1],0.03
same,"Absorbance, solution after 3 hrs. of heating",[1],0.03
Cc1c(C)c2c(c(C)c1O)CCC(C)(CCC(N)C(=O)O)O2 (centres unmarked),"Absorbance, solution after 1 hr. of heating",[1],0.02
same,"Absorbance, solution after 2 hrs. of heating",[1],0.03
same,"Absorbance, solution after 3 hrs. of heating",[1],0.04
CC1(CC(N)C(=O)O)CCc2cc(O)ccc2O1 (centres unmarked),"Absorbance, solution after 1 hr. of heating",[1],0.02
same,"Absorbance, solution after 2 hrs. of heating",[1],0.03
same,"Absorbance, solution after 3 hrs. of heating",[1],0.03
Cc1cc(O)cc2c1OC(C)(CC(N)C(=O)O)CC2 (centres unmarked),"Absorbance, solution after 1 hr. of heating",[1],0.02
same,"Absorbance, solution after 2 hrs. of heating",[1],0.03
same,"Absorbance, solution after 3 hrs. of heating",[1],0.03
Cc1cc2c(c(C)c1O)CCC(C)(CC(N)C(=O)O)O2 (centres unmarked),"Absorbance, solution after 1 hr. of heating",[1],0.02
same,"Absorbance, solution after 2 hrs. of heating",[1],0.03
same,"Absorbance, solution after 3 hrs. of heating",[1],0.04
COc1c(O)c(C)c2c(c1OC)OC(C)(CC(N)C(=O)O)CC2 (centres unmarked),"Absorbance, solution after 1 hr. of heating",[1],0.02
same,"Absorbance, solution after 2 hrs. of heating",[1],0.03
same,"Absorbance, solution after 3 hrs. of heating",[1],0.05
Cc1c2c(c3ccccc3c1O)OC(C)(CC(N)C(=O)O)CC2 (centres unmarked),"Absorbance, solution after 1 hr. of heating",[1],0.02
same,"Absorbance, solution after 2 hrs. of heating",[1],0.03
same,"Absorbance, solution after 3 hrs. of heating",[1],0.05
CCOC(=O)C(N)CC1(C)CCc2c(C)c(O)c(C)c(C)c2O1 (centres unmarked),"Absorbance, solution after 1 hr. of heating",[1],0.02
same,"Absorbance, solution after 2 hrs. of heating",[1],0.03
same,"Absorbance, solution after 3 hrs. of heating",[1],0.05
CCCCCCCCCCCCCCCCCCOC(=O)C(N)CC1(C)CCc2c(C)c(O)c(C)c(C)c2O1 (centres unmarked),"Absorbance, solution after 1 hr. of heating",[1],0.03
same,"Absorbance, solution after 2 hrs. of heating",[1],0.04
same,"Absorbance, solution after 3 hrs. of heating",[1],0.07
Cc1c(C)c2c(c(C)c1O)CCC(C)(C(O)C(=O)O)O2 (centres unmarked),Time till POV = 100 meq/kg,[2],2.3 h
Cc1c(C)c2c(c(C)c1O)CCC(C)(CC(O)C(=O)O)O2 (centres unmarked),Time till POV = 100 meq/kg,[2],2.4 h
Cc1c(C)c2c(c(C)c1O)CCC(C)(CCC(O)C(=O)O)O2 (centres unmarked),Time till POV = 100 meq/kg,[2],2.0 h
CCOC(=O)C(O)C1(C)CCc2c(C)c(O)c(C)c(C)c2O1 (centres unmarked),Time till POV = 100 meq/kg,[2],2.1 h
CCOC(=O)C(O)CC1(C)CCc2c(C)c(O)c(C)c(C)c2O1 (centres unmarked),Time till POV = 100 meq/kg,[2],2.3 h
COC(=O)C(O)CCC1(C)CCc2c(C)c(O)c(C)c(C)c2O1 (centres unmarked),Time till POV = 100 meq/kg,[2],2.1 h
CC1(CC(O)C(=O)O)CCc2cc(O)ccc2O1 (centres unmarked),Time till POV = 100 meq/kg,[2],2.2 h
Cc1cc(O)cc2c1OC(C)(CC(O)C(=O)O)CC2 (centres unmarked),Time till POV = 100 meq/kg,[2],2.3 h
COc1c(O)c(C)c2c(c1OC)OC(C)(CC(O)C(=O)O)CC2 (centres unmarked),Time till POV = 100 meq/kg,[2],2.2 h
Cc1c2c(c3ccccc3c1O)OC(C)(CC(O)C(=O)O)CC2 (centres unmarked),Time till POV = 100 meq/kg,[2],1.9 h
"Cc1c(C)c2c(c(C)c1OC(C)(C)COC(=O)c1cccnc1)CCC(C)(C)O2 [2-(2,2,5,7,8-pentamethyl-6-chromanyloxy)isobutyl nicotinate]",cholesterol lowering activity,[3],have cholesterol lowering activity
"Cc1c(C)c2c(c(C)c1OC(C)(C)C(=O)OCCN(C)C)CCC(C)(C)O2 [2-(N,N-dimethylamino)ethyl 2-(2,2,5,7,8-pentamethyl-6-chromanyloxy)isobutyrate]",cholesterol lowering activity,[3],have cholesterol lowering activity
"O=C1O[C@H]([C@@H](O)CO)C(O)=C1O [Ascorbic acid, reference compound]","Absorbance, solution after 1 hr. of heating",[1],0.10
same,"Absorbance, solution after 2 hrs. of heating",[1],0.21
same,"Absorbance, solution after 3 hrs. of heating",[1],0.30
"CC(=O)Oc1ccccc1C(=O)O [Aspirin, reference compound]",inhibition,[4],40.8%
"Cc1c(C)c2c(c(C)c1O)CCC(C)(CC(N)C(=O)O)O2 (stereo not drawn) [Example 1, β-(2,3-dihydro-6-hydroxy-2,5,7,8-tetramethyl-2H-benzopyranyl)alanine hydrochloride]",Activity observed (animals protected),"[5]; Mouse, tested at 15 min post-dose, criterion >3/5 protected",5/5
same,local anesthetic activity (in words),[5]; Table 8: mouse,demonstrated a local anesthetic activity
same,isoprenaline-induced bronchodilation (in words),[6],An inhibition of isoprenaline-induced bronchodilation is also observed
same,inhibition,[4],96.1%
same,LD50,[7],2620 mg/kg
same,"Activity observed (writhing score, criterion <50% of control group)","[8]; Rat, test 0.75 hr post-dose",16%
same,inhibition of writhing,[8]; Table 8: rat,84%
"Cc1c(C)c2c(c(C)c1O)CCC(C)(CC(N)CO)O2 (centres unmarked) [Example 17, 2-amino-3-[2-(2,3-dihydro-6-hydroxy-2,5,7,8-tetramethyl-2H-benzopyranyl)]-1-propanol]",inhibition,[4],83.7%
"Cc1c(C)c2c(c(C)c1O)CCC(C)(CN)O2 (centres unmarked) [Example 19, (2,3-dihydro-6-hydroxy-2,5,7,8-tetramethyl-2H-benzopyranyl)methylamine hydrochloride]",inhibition,[4],65.6%
"O=C1OC(C(O)CO)C(O)=C1O (centres unmarked) [Sodium erithorbate, reference compound]","Absorbance, solution after 1 hr. of heating",[1],0.11
same,"Absorbance, solution after 2 hrs. of heating",[1],0.17
same,"Absorbance, solution after 3 hrs. of heating",[1],0.18
Cc1c(C)c2c(c(C)c1O)CCC(C)(CC(N)C(=O)O)O2 (centres unmarked) [drawing 62],"Absorbance, solution after 1 hr. of heating",[1],0.02
same,"Absorbance, solution after 2 hrs. of heating",[1],0.03
same,"Absorbance, solution after 3 hrs. of heating",[1],0.03
Cc1c(C)c2c(c(C)c1O)CCC(C)(CC(N)C(=O)O)O2 (centres unmarked) [drawing 70],"Absorbance, solution after 1 hr. of heating",[1],0.02
same,"Absorbance, solution after 2 hrs. of heating",[1],0.03
same,"Absorbance, solution after 3 hrs. of heating",[1],0.04
Cc1c(C)c2c(c(C)c1O)CCC(C)(CC(N)C(=O)O)O2 (centres unmarked) [drawing 71],"Absorbance, solution after 1 hr. of heating",[1],0.02
same,"Absorbance, solution after 2 hrs. of heating",[1],0.03
same,"Absorbance, solution after 3 hrs. of heating",[1],0.03
"Cc1c(C)c2c(c(C)c1O)CCC(C)(CCCC(C)CCCC(C)CCCC(C)C)O2 (stereo not drawn) [α-Tocopherol, reference compound]",Time till POV = 100 meq/kg,[2],1.4 h
same,"Absorbance, solution after 1 hr. of heating",[1],0.07
same,"Absorbance, solution after 2 hrs. of heating",[1],0.19
same,"Absorbance, solution after 3 hrs. of heating",[1],0.30
